Where no end group is shown, it is not given here. The star is where a group is joined. 5FAM = O=C1OC2(c3ccc(O)cc3Oc3cc(O)ccc32)c2ccc(C(=O)*)cc21
Tests used:
[1] = test system: anti-FLAG M2 monoclonal antibody; assay: FPA analysis of FLAG model peptide tracers with anti-FLAG antibody; format: binding; conditions: TBS pH 7.2
Source text: The FLAG peptide (a well known tag, e.g. used for immuno affinity purification) was used as a model peptide to develop a labelling strategy for peptide tracers which allows chemical linking of a fluorophore to the peptide to reduce or inhibit rotation of the fluorophore relative to the peptide. The FLAG peptide and an elongated FLAG peptide were used to and coupled to 5-Carboxyfluorescein (5-CF) with a linker containing the following amino acid composition
FPA analysis of the FLAG Model peptide shown in Table 1 was performed by the following procedure.
The FLAG Model peptide tracers were diluted in TBS (containing 25 mM Tris, 0.15M NaCl, NP40 0.05%, pH 7.2) at a concentration of 8.1 nM or 2.7 nM, respectively in a single well of a black colored 96-well plate. The plate was incubated for 2 minutes at room temperature on an orbital shaker set at 1350 rpm and then incubated for another minute without shaking. Blank measurement of the sample was then performed by reading the fluorescence polarisation in a fluorescence reader (Safir2, Tecan, Switzerland) with excitation and emission wavelength set at 470 nm and 520 nm, respectively.
Then, 1, 3 or 10 molar equivalence of the anti-FLAG M2 monoclonal antibody (Sigma, Switzerland), respectively, were added and the plate was incubated at room temperature with shaking (1350 rpm) for 3 minutes and then for an additional minute without shaking. Then the plate was measured.
(§1) The mP values were calculated according to the following formula: […]
(§2) The ΔmP values were obtained by subtracting the mP values of the negative serum from the positive sera:
ΔmP=mPpositive serum−mPnegative serum

[2] = test system: Trichinella positive serum (antibodies against Trichinella); assay: FPA discrimination between Trichinella positive and Trichinella negative serum; format: binding; conditions: mP positive serum minus mP negative serum; tracer 5 nM; buffer differs per tracer as listed in Table 2
Procedure: Table 2 depicts for some of the Trichinella peptides their ability to discriminate between a Trichinella positive and a Trichinella negative serum sample using fluorescence polarisation assay (FPA).
FPA analysis of the tracers shown in Table 2 was performed by the following procedure. A […] aliquot of the positive or negative serum was diluted with […] of buffer (PBS with detergent as indicated in Table 2) in a single well of a black coloured 96-well plate. The plate was incubated for 2 minutes at room temperature on an orbital shaker set at 1350 rpm and then incubated for another minute without shaking. Blank measurement of the sample was then performed by reading the fluorescence polarisation in a fluorescence reader (Safire2, Tecan, Switzerland) with excitation and emission wavelength set at 470 nm and 520 nm, respectively. Then, […] tracer was added to the reaction mixture to a final concentration of 5 nM and the plate was incubated at room temperature with shaking (1350 rpm) for 15 minutes and then for an additional minute without shaking. Then the plate was measured.
as §1, §2
ΔmP=mPpositive serum=mPnegative serum

[3] = test system: Trichinella positive sera (antibodies against Trichinella); assay: ELISA discrimination between Trichinella positive and negative serum using SS2 peptides; format: binding, pig; conditions: peptide-coated plate; serial two fold dilutions of serum; read at 405 nm; FIGS. 8a and b
Procedure: FIGS. 8a and b show the results of 2 of the preferred SS2 peptides (SEQ IDs NO 7 and 8) tested in ELISA assays. […] Serial two fold dilutions of the serum sample were tested.
Single wells of a 96-well microtitre plate were coated with the SS2 peptides ([…]) at a concentration of […] in carbonate buffer 0.1 M (pH 9.5) overnight at 4° C. The plate was washed 4 times with 0.05% Tween 80 and then blocked with a PBS buffer containing 2% I-block and 0.1% Tween 20 for 90 minutes at 25° C.±3° C. Pig sera were diluted 50-fold in phosphate buffered saline and serial 2-fold dilutions were incubated in the microtitre plate with shaking (500 rpm) for 2 hours at room temperature. The plates were washed 4 times with 0.05% Tween 80 Detection of the bound antibodies was performed by incubation with a goat anti-pig IgG(Fc)-POD conjugate (Bethyl Laboratories, USA) at a concentration of 1.3 ug/ml for 1 h at RT with shaking (500 rpm). Following four more washes, 2′-azino-bis(3-ethylbenzthiazoline-6-sulphonic acid) (ABTS) substrate solution was added and incubated for 30 minutes, colour development was measured in a ELISA reader (Tecan, Switzerland) at a wavelength of 405 nm.

5-CF-Pro-Gly(9)-FLAG [4] = assay: fluorescence polarisation assay; tracer 2.7 nM, 3 molar equivalents of antibody
5-CF-Trp-Gly(9)-FLAG [5] = assay: as above
5-CF-Trp(2)-Gly(9)-FLAG [6] = assay: as above
5-CF-Pro-Gly(9)-FLAG [7] = assay: fluorescence polarisation assay; tracer 8.1 nM, 3 molar equivalents of antibody
5-CF-Trp-Gly(9)-FLAG [8] = assay: as above
5-CF-Trp(2)-Gly(9)-FLAG [9] = assay: as above
5-CF-Pro-Gly(9)-FLAG [10] = assay: fluorescence polarisation assay; tracer 2.7 nM, 1 molar equivalent of antibody
5-CF-Trp-Gly(9)-FLAG [11] = assay: as above
5-CF-Trp(2)-Gly(9)-FLAG [12] = assay: as above
5-CF-Pro-Gly(9)-FLAG [13] = assay: fluorescence polarisation assay; tracer 8.1 nM, 1 molar equivalent of antibody
5-CF-Trp-Gly(9)-FLAG [14] = assay: as above
5-CF-Trp(2)-Gly(9)-FLAG [15] = assay: as above
5-CF-Pro-Gly(9)-FLAG [16] = assay: fluorescence polarisation assay; tracer 2.7 nM, 10 molar equivalents of antibody
5-CF-Trp-Gly(9)-FLAG [17] = assay: as above
5-CF-Trp(2)-Gly(9)-FLAG [18] = assay: as above
5-CF-Pro-Gly(9)-FLAG [19] = assay: fluorescence polarisation assay; tracer 8.1 nM, 10 molar equivalents of antibody
5-CF-Trp-Gly(9)-FLAG [20] = assay: as above
5-CF-Trp(2)-Gly(9)-FLAG [21] = assay: as above
[22] = tracer 2.7 nM, 1 molar equivalent anti-FLAG antibody
[23] = tracer 2.7 nM, 3 molar equivalents anti-FLAG antibody
[24] = tracer 2.7 nM, 10 molar equivalents anti-FLAG antibody
[25] = tracer 8.1 nM, 1 molar equivalent anti-FLAG antibody
[26] = tracer 8.1 nM, 3 molar equivalents anti-FLAG antibody
[27] = tracer 8.1 nM, 10 molar equivalents anti-FLAG antibody

5-CF-Pro-Gly(9)-Asp-Tyr-Lys-Asp-Asp-Asp-Asp-Lys [S-CF-Pro-Gly(9)-FLAG]
ΔmP values [1, 22]: 5 mP | ΔmP values [1, 23]: 15 mP | ΔmP values [1, 24]: 33 mP | ΔmP values [1, 25]: 14 mP | ΔmP values [1, 26]: 33 mP | ΔmP values [1, 27]: 62 mP

5-CF-Trp(2)-Gly(9)-Asp-Tyr-Lys-Asp-Asp-Asp-Asp-Lys (5FAM-WWGGGGGGGGGDYKDDDDK) [5-CF-Trp(2)-Gly(9)-FLAG, FLAG model peptide tracer coupled to 5-Carboxyfluorescein via Trp-Trp linker]
ΔmP values [1, 22]: 5 mP | ΔmP values [1, 23]: 35 mP | ΔmP values [1, 24]: 97 mP | ΔmP values [1, 25]: 37 mP | ΔmP values [1, 26]: 78 mP | ΔmP values [1, 27]: 124 mP

5-CF-Trp-Gly(9)-Asp-Tyr-Lys-Asp-Asp-Asp-Asp-Lys (5FAM-WGGGGGGGGGDYKDDDDK) [5-CF-Trp-Gly(9)-FLAG, FLAG model peptide tracer coupled to 5-Carboxyfluorescein via Trp linker]
ΔmP values [1, 22]: 9 mP | ΔmP values [1, 23]: 27 mP | ΔmP values [1, 24]: 55 mP | ΔmP values [1, 25]: 19 mP | ΔmP values [1, 26]: 50 mP | ΔmP values [1, 27]: 86 mP

ALRLKRFAK (listed as Trichinella spiralis) [SEQ ID NO 28, peptide of Trichinella spiralis 53 kDa excretory/secretory antigen]
ΔmP [2]: 41 mP

KEADKSALRLKRFAKPPKGFF (KEADKSALRLKRFAKPPKGFF; listed as Trichinella spiralis) [SEQ ID NO 27, peptide of Trichinella spiralis 53 kDa excretory/secretory antigen]
ΔmP [2]: 31 mP

KPFGDEIDRI LRKAF (KPFGDEIDRILRKAF; listed as Trichinella spiralis) [SEQ ID NO 26, peptide of Trichinella spiralis 53 kDa excretory/secretory antigen]
ΔmP [2]: 31 mP

LSTASRPTNPYTGSRPTSPSSGSRP (LSTASRPTNPYTGSRPTSPSSGSRP; listed as Trichinella spiralis) [SEQ ID NO 7, peptide of Trichinella spiralis newborn larvae-specific protein SS2]
ability to discriminate between negative and positive sera in ELISA [3]: able to discriminate between negative and positive sera | ΔmP [2]: 20 mP

MHKITHKSIVSRHTFAVYLLVSGQK (MHKITHKSIVSRHTFAVYLLVSGQK; listed as Trichinella spiralis) [SEQ ID NO 5, peptide of Trichinella spiralis newborn larvae-specific protein SS2; used as FPA tracer]
ΔmP [2]: 39 mP

NNYRGRQGIA GLGML (NNYRGRQGIAGLGML; listed as Trichinella spiralis) [SEQ ID NO 23, peptide of Trichinella spiralis 53 kDa excretory/secretory antigen]
ΔmP [2]: 23 mP

PTYPSSGSRP TYPSSGSRP (PTYPSSGSRPTYPSSGSRP; listed as Trichinella spiralis) [SEQ ID NO 9, peptide of Trichinella spiralis newborn larvae-specific protein SS2]
ΔmP [2]: 66 mP

PTYPSSGSRPTYPSSGSRPTYPYTG (PTYPSSGSRPTYPSSGSRPTYPYTG; listed as Trichinella spiralis) [SEQ ID NO 8, peptide of Trichinella spiralis newborn larvae-specific protein SS2]
ability to discriminate between negative and positive sera in ELISA [3]: able to discriminate between negative and positive sera | ΔmP [2]: 66 mP

QNERQFDENK LKKLLKPLG (QNERQFDENKLKKLLKPLG; listed as Trichinella spiralis) [SEQ ID NO 20, peptide of Trichinella spiralis 53 kDa excretory/secretory antigen]
ΔmP [2]: 28 mP

QNERQFDENKLKKLLKPLGKLYKTPSD (QNERQFDENKLKKLLKPLGKLYKTPSD; listed as Trichinella spiralis) [SEQ ID NO 19, peptide of Trichinella spiralis 53 kDa excretory/secretory antigen]
ΔmP [2]: 33 mP

VGGTDVRPHSH PWQIQLLKSET G (VGGTDVRPHSHPWQIQLLKSETG; listed as Trichinella spiralis) [SEQ ID NO 6, peptide of Trichinella spiralis newborn larvae-specific protein SS2; used as FPA tracer]
ΔmP [2]: 35 mP

VVTIFRKNGK TTEVLSL (VVTIFRKNGKTTEVLSL; listed as Trichinella spiralis) [SEQ ID NO 24, peptide of Trichinella spiralis 53 kDa excretory/secretory antigen]
ΔmP [2]: 57 mP

VVYSKTSSSR LEMYGSF (VVYSKTSSSRLEMYGSF; listed as Trichinella spiralis) [SEQ ID NO 16, peptide of Trichinella spiralis 43 kDa secreted glycoprotein]
ΔmP [2]: 20 mP

anti-FLAG M2 monoclonal antibody (Sigma, Switzerland)
ΔmP (5-CF-Pro-Gly(9)-FLAG [4]): 15 mP | ΔmP (5-CF-Trp-Gly(9)-FLAG [5]): 27 mP | ΔmP (5-CF-Trp(2)-Gly(9)-FLAG [6]): 35 mP | ΔmP (5-CF-Pro-Gly(9)-FLAG [7]): 33 mP | ΔmP (5-CF-Trp-Gly(9)-FLAG [8]): 50 mP | ΔmP (5-CF-Trp(2)-Gly(9)-FLAG [9]): 78 mP | ΔmP (5-CF-Pro-Gly(9)-FLAG [10]): 5 mP | ΔmP (5-CF-Trp-Gly(9)-FLAG [11]): 9 mP | ΔmP (5-CF-Trp(2)-Gly(9)-FLAG [12]): 5 mP | ΔmP (5-CF-Pro-Gly(9)-FLAG [13]): 14 mP | ΔmP (5-CF-Trp-Gly(9)-FLAG [14]): 19 mP | ΔmP (5-CF-Trp(2)-Gly(9)-FLAG [15]): 37 mP | ΔmP (5-CF-Pro-Gly(9)-FLAG [16]): 33 mP | ΔmP (5-CF-Trp-Gly(9)-FLAG [17]): 55 mP | ΔmP (5-CF-Trp(2)-Gly(9)-FLAG [18]): 97 mP | ΔmP (5-CF-Pro-Gly(9)-FLAG [19]): 62 mP | ΔmP (5-CF-Trp-Gly(9)-FLAG [20]): 86 mP | ΔmP (5-CF-Trp(2)-Gly(9)-FLAG [21]): 124 mP
